From US6015818A, “Quinoline derivatives as bradykinin agonists” (Fujisawa Pharmaceutical Co., Ltd., priority 1996, dated 2000) come the findings set out here.

For orientation: IC50 means the concentration needed to halve the response being measured.

One assay deals with WI-38 PGE2 production. The assay is described as follows: Prostaglandin E2 (PGE2) production in human fibroblasts (WI-38). In kind it is cell-based. As to conditions: WI-38, 0.5 h, concentration: 1 × 10^-6 M, 30 minutes at 37° C., PGE2 by EIA, read-out: WI-38 PGE2 production increase ratio. The procedure: (II) Prostaglandin E2 (PGE2) production in human fibroblasts
The assay of PGE2 production was modified from the procedure described in The Journal of Biological Chemistry, 257, 8630-8633 (1982).
Human fibroblasts (WI-38, ATCC CCL75) were grown in Eagle's Minimum Essential Medium [E-MEM: ICN Biomedical Inc., Cat. No. 10-101-24 (47.6 g) with sodium bicarbonate (11.0 g), penicillin G potassium salt (0.5 g), streptomycin sulfate (0.5 g) in water (5000 ml) and 10% fetal bovine serum]. The cells were placed into the quiescent state after confluence was reached.
(b) Measurements of PGE2 production
WI-38 cells were seeded in 24-well plates at a density of 1×10^5 cells/well with 0.5 ml of E-MEM including 1% fetal bovine serum and were cultured for 1 day. The mediums in 24-well plates in which WI-38 cells were cultured were removed by aspiration and Hanks-bovine serum albumin buffer [Hanks-BSA Buffer: Hanks' balanced salts (4.9 g), sodium bicarbonate (0.1 g) and bovine serum albumin (protease free) (0.5 g)] was added thereto. […] Supernatant was collected, and PGE2 level included therein was measured by PGE2 EIA Kit (Cayman Chemical Co.).

For another assay, the target named is T1, Bradykinin receptor (Cavia porcellus, UniProt O70526).
T1 construct: The ileum was removed and homogenized in buffer; from tissue; host or cells: guinea pig (male Hartley strain) ileum, crude membrane suspension
T1 sequence (O70526 1-372): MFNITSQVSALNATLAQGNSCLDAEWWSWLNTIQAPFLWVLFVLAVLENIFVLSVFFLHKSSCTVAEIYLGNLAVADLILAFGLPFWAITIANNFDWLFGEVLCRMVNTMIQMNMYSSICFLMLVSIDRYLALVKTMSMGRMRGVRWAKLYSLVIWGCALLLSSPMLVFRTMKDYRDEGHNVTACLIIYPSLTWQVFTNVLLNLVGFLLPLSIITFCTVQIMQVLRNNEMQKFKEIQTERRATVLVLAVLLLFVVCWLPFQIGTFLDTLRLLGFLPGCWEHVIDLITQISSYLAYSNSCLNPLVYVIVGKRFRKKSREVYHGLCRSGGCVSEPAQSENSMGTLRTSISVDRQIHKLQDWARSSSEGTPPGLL
In words: 3H-Bradykinin receptor binding (crude guinea pig ileum membrane). Details: species or system guinea pigs. Conditions: 3H-Bradykinin 0.06 nM, room temperature, 60 minutes, read-out: Inhibition of ^3 H-Bradykinin binding: IC50. As to the method:
(I) ^3 H-Bradykinin receptor binding
(a) Crude ileum membrane preparation
Male Hartly strain guinea pigs were sacrificed by decapitation. The ileum was removed and homogenized in buffer (50 mM 2-[[tris(hydroxymethyl)methyl]amino]-1-ethanesulfonic acid (TES), 1 mM 1,10-phenanthroline pH 6.8). The homogenate was centrifuged (1000×g,20 minutes) to remove tissue clumps and the supernatant was centrifuges (100,000×g, 60 minutes) to yield a pellet. The pellet was resuspended in buffer (50 mM TES, 1 mM 1,10-phenanthroline, 140 mg/l bacitracin, 1 mM dithiothreiol, 0.1% bovine serum albumin pH 6.8) and homogenized with a glass-teflon homogenizer to yield suspension which was referred to as crude membrane suspension. The obtained membrane suspension was stored at -80° C. until use.
(b) ^3 H-Bradykinin binding to the membrane
The frozen crude membrane suspension was thawed. In binding assays, ^3 H-Bradykinin (0.06 nM) and drug were incubated with 50 μl of the membrane suspension at room temperature for 60 minutes in a final volume of 250 μ1. Separation of receptor-bound from free ^3 H-Bradykinin is achieved by immediate filtration under vacuum and washed three times with 5 ml of ice-cold buffer (50 mM Tris-HCl pH 7.5). Non-specific binding was defined as binding in the presence of 0.1 μM Bradykinin. The radioactivity retained on rinsed filters was determined by a liquid-scintillation counter.

`CNC(=O)c1ccc(C=CC(=O)NCC(=O)N(C)c2ccc(Cl)c(COc3cccc4c(OCc5ccccn5)cc(C)nc34)c2Cl)cc1` [Example 1-(2), 8-[2,6-dichloro-3-[N-[4-(methylcarbamoyl)cinnamoylglycyl]-N-methylamino]benzyloxy]-2-methyl-4-(2-pyridylmethoxy)quinoline]: the fold induction at 1 µM in the assay on WI-38 PGE2 production came out at 7.95. Also, the 50% inhibitory concentration (IC50) on Bradykinin receptor is 0.99 nM.
Take `COc1nc2c(OCc3c(Cl)ccc(N(C)C(=O)CNC(=O)/C=C/c4ccc(NC(C)=O)nc4)c3Cl)cccc2n1Cc1ccccn1` [Example 9, 4-[3-[N-[(E)-3-(6-acetamidopyridin-3-yl)acryloylglycyl]-N-methylamino]-2,6-dichlorobenzyloxy]-2-methoxy-1-(2-pyridylmethyl)-1H-benzimidazole]: in the assay with WI-38 PGE2 production, the fold induction at 1 µM is 10.8. For the same compound, the IC50 on Bradykinin receptor was found to be 6.3 nM.
